Laboratory results published in US20180353398A1, “HAIR CARE REGIMEN USING NA AEROSOL FOAM CONCENTRATED CONDITIONER” (The Procter & Gamble Company, priority 2015, published 2018).
Counter-ions that a name gives are not always drawn.

Assay: Kinematic viscosity of shampoo base formulation with viscosity reducing agent (calibrated viscometers)
Assay type: physicochemical
Conditions: lowest of 2-8% agent in base formulation, 40° C.
Excerpt: Now referring to Tables 11 and 12, the base formulations were made by mixing 1.6% perfume, 24% linear sodium undecyl sulfate (CAS# 1072-24-8) active, 6% lauramidopropyl betaine (CAS# 4292-10-8) active and 60.4% deionized water which leaves 8% unfilled for the addition of a viscosity reducing agent (the balance being filled in by distilled water). For all compositions, the surfactant, water and additives including viscosity reducing agents were expected to be in a single phase.
The agents from Tables 11 and 12 were added to the base formulation at a percentage of 2%, 4%, 6%, and 8% into the above surfactant solution. The subsequent formulations were vortexed and put into oven at 60° C. overnight to form homogeneous solution. The viscosities of the formulations were measured with calibrated viscometers (Size 200/350/450) from Cannon Instrument Company (2139 High Tech Road, State College, Pa., USA, 16803).
After the equilibration, the formulations were drawn to reach the starting mark with a rubber suction bulb and the flow time between the starting mark and end mark was recorded for calculation. Each formulation was measured three times to calculate average and standard deviation. Between samples, viscometer was cleaned with water and acetone to rinse off residual.
Viscosity values in Table 11 and Table 12 were calculated based on the equation:
Viscosity (mm^2/s. (cSt))=Time (s)*Constant (mm^2/s^2. (cSt/s))
The time in the above equation is the flow time recorded in the experiment and the constant numbers for each calibrated viscometer were obtained from the manuals.

SMILES	Lowest viscosity achieved (cSt)
CCC(=O)O[C@@H]1C[C@H]2CC[C@]1(C)C2(C)C (racemic) [Iso Bornyl Propionate]	463
CCO [Ethanol]	29
CC(C)CC=C(C=O)C(C)C [2-Isopropyl-5-methyl-2-hexenal]	332
COC(C)(C)C1CC=C(C)CC1 (stereo not shown) [Orange Flower Ether]	419
CCCCCC(=O)OCC(C)C [Isobutyl Hexanoate]	109
CCCCCCCC(OC)OC [1,1-Dimethoxyoctane]	308
CC(C)COC(=O)c1ccccc1O [Iso Butyl Salicylate]	409
CC1=CCC(C(C)C)=CC1 [gamma-Terpinene]	32
CCC(CC(C)CC)=NO (stereo not shown) [5-Methyl-3-Heptanone Oxime]	246
CCCCCC1(C)CCC(C)(C)C1=O (stereo not shown) [Veloutone]	47
C=C(C)[C@H]1CC=C(C)CC1 [Limonene]	86
CC12CCC(CC1=O)C2(C)C (stereo not shown) [Camphor Gum]	127
CC12CCC(CC1)C(C)(C)O2 [Eucalyptol]	203
CCOC(=O)CC(O)(CC(=O)OCC)C(=O)OCC [Triethyl Citrate]	41
CC(C)=CCC/C(C)=C/COC(=O)Cc1ccccc1 [Geranyl Phenyl Acetate]	34
CC(CC=O)CCCC(C)(C)O (stereo not shown) [Hydroxycitronellal]	34
CC(=O)OCCC(C)CCC=C(C)C (stereo not shown) [Citronellyl Acetate]	363
CC1=CC=C(C(C)C)CC1 [alpha-Terpinene]	42
CCC(=O)OC1CC2CC1C1CC=CC21 (stereo not shown) [Cyclaprop]	404
C=C(C)[C@H]1CC=C(C)CC1 [Dipentene]	35
CCCCCCCCCCCCCCCC [Hexadecane]	18
CC(=O)CCc1ccc(O)cc1 [Raspberry Ketone]	33
CC(C)CCOC(=O)c1ccccc1O [Isoamyl Salicylate]	193
CCCCCCC1C(=O)CCC1C(=O)OC (stereo not shown) [Dihyro Iso Jasmonate]	119
C=CC(C)(CCC=C(C)C)OC(=O)C(C)C (stereo not shown) [Linalyl Iso Butyrate]	38
CCCCCCCCCCCCCC(=O)OC(C)C [Iso Propyl Myristate]	30
CCCCOC(=O)c1ccccc1O [Butyl Salicylate]	368
CC(=O)OCCC(C)CCCC(C)C (stereo not shown) [3,7-Dimethyloctyl Acetate]	446
